{
  "source": "patent US10000577B2",
  "about": "“Treatment of otitis media” (Research Institute at Nationwide Children's Hospital, priority 2015, dated 2018)",
  "system": "NHBE cells",
  "experiment": "Inhibition of Arp2/3 - normal human bronchial epithelial cell (NHBE) infection model with GFP-expressing NTHI",
  "assay_type": "cell-based",
  "settings": "200 μM CK-636, 24 or 48 hours",
  "procedure": "Inhibition of Arp2/3—Normal human bronchial epithelial cell (NHBE) infection model: NHBE cells (Lonza, Walkersville, Md.) were seeded into 24-well plates containing sterile coverslips and grown in Bronchial Epithelial Cell Growth Medium (BEGM; Lonza, Walkersville, Md.) at 37° C. in a 5% CO2 atmosphere to near confluency. […] The next morning the colonies were re-suspended in brain heart infusion broth supplemented with 2 μg/ml heme and 2 μg/ml β-NAD (sBHI) and grown at 37° C. with shaking at 180 rpm until the cells were in mid-log phase (˜5 generations). Prior to infection, the BEGM was removed from the NHBE cells and replaced with BEGM that contained either 200 μM CK-636 (Sigma-Aldrich, St. Louis, Mo.), an inhibitor of Arp2/3 function, or 0.2% DMSO, the vehicle for CK-636. Strain 86-028NP(pGM1.1) was then added to the NHBE cells at a multiplicity of infection of 50 bacteria to one NHBE cell and incubated at 37° C. in a 5% CO2 atmosphere for one hour. The NHBE cells were then washed twice with DPBS before being placed back in BEGM that contained either 200 μM CK-636 or 0.2% DMSO. Cells were incubated at 37° C. in a 5% CO2 atmosphere for 24 or 48 hours. At each time point, cells were stained with WGA-Alexa Fluor 594, fixed in 4% paraformaldehyde (Electron Microscopy Sciences, Hatfield, Pa.) in DPBS, permeabilized with 0.1% Triton X-100 then stained with phalloidin-Alexa Fluor 350. […]",
  "note": "“Also recorded” adds a separate entry of the source.",
  "data": [
    {"compound": "Cc1[nH]c2ccccc2c1CCNC(=O)c1cccs1", "note": "[CK-636]", "values": [
      {"measurement": "NTHI invasion / bacterial uptake into epithelial cells (fluorescent microscopy)", "setting": "NTHI strain 86-028NP(pGM1.1), MOI 50, versus 0.2% DMSO vehicle", "result": "reduced NTHI invasion into epithelial cells; also recorded: increase in the number of extracellular bacteria indicating that bacterial uptake was reduced"},
      {"measurement": "actin structure of NHBE cells (phalloidin staining, fluorescent microscopy)", "setting": "NTHI-infected NHBE cells", "result": "gross morphological changes in actin structure"}
    ]}
  ]
}
